8 molecules from PubChem BioAssay (NCI) can be followed below.

Among the test systems are IGROV1 ovarian; MDA-MB-231 breast; UO-31 renal; SK-MEL-2 melanoma; OVCAR-8 ovarian; K-562 leukemia; MDA-MB-435; OVCAR-3 ovarian; UACC-62 melanoma; MALME-3M melanoma.
What all share (assay): inhibition of tumour cell growth, NCI panel, 48 h

Several values for one entry are separate records, joined by “and”; a condition that tells them apart may be missing. Identical values can stand only once.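 Results reflect a 48-hour exposure of cells in 96-well plates to compound at five concentrations. GI50: concentration for 50% inhibition of growth. TGI marks complete inhibition of growth.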 Bounds are passed on as bounds.

With `O=C(/C=C/c1ccccc1)c1ccccn1`, the TGI with IGROV1 ovarian was 22.8 µM and 37.9 µM; with MDA-MB-231 breast it was 30.7 µM and > 100 µM; in the assay with UO-31 renal, 31 µM and 46.5 µM; in the assay with SK-MEL-2 melanoma, 43.8 µM; in the assay with OVCAR-8 ovarian, 34.6 µM and > 100 µM; in the assay on K-562 leukemia, 36.6 µM and > 100 µM. In addition, the TGI in the assay with MDA-MB-435 was 44.7 µM and 88.7 µM; in the assay with OVCAR-3 ovarian it was 26.8 µM and 43.3 µM; in the assay on UACC-62 melanoma, 36.8 µM and 41.4 µM. The GI50 in the assay on MDA-MB-231 breast is 15.6 µM and 35.8 µM; with K-562 leukemia it was 4.36 µM and 21.6 µM.

As to `Fc1cnccc1-c1nc2ccc3[nH]ncc3c2c2c1CCCC2`, the GI50 was 0.688 µM in the assay on IGROV1 ovarian; 2.3 µM in the assay with MDA-MB-231 breast; 2.76 µM in the assay on MALME-3M melanoma; 1.91 µM with UO-31 renal; 2.1 µM with OVCAR-8 ovarian; 2.63 µM with K-562 leukemia. The figures for the GI50 in the assay on MDA-MB-435, in the assay on OVCAR-3 ovarian and in the assay with UACC-62 melanoma were 1.25 µM, 2.46 µM and 1.44 µM, respectively. For the same molecule, the TGI was 11.2 µM in the assay on IGROV1 ovarian; > 100 µM in the assay with MDA-MB-231 breast; 9.06 µM with MALME-3M melanoma; 8.04 µM with UO-31 renal; > 100 µM in the assay on OVCAR-8 ovarian; > 100 µM in the assay on K-562 leukemia. The TGI is > 100 µM in the assay on MDA-MB-435, 10.9 µM in the assay with OVCAR-3 ovarian and 5.75 µM in the assay on UACC-62 melanoma.

As to `O=C(CNC(=O)c1cccc2ccccc12)Nc1ccccc1Oc1ccc(O)cc1`, the GI50 in the assay on IGROV1 ovarian was 2.33 µM; with MDA-MB-231 breast, 3.18 µM; in the assay on UO-31 renal it was 1.78 µM; in the assay with OVCAR-8 ovarian it was 1.31 µM; in the assay on K-562 leukemia, 0.497 µM; with MDA-MB-435, 0.161 µM. In addition, the GI50 is 0.744 µM with OVCAR-3 ovarian and 1.17 µM in the assay with UACC-62 melanoma. Moreover, the TGI in the assay on IGROV1 ovarian is > 25 µM; with MDA-MB-231 breast, > 25 µM; in the assay with UO-31 renal it was > 25 µM; in the assay on OVCAR-8 ovarian, > 25 µM; with K-562 leukemia it was > 25 µM; in the assay with MDA-MB-435, 0.687 µM. In addition, the TGI in the assay on OVCAR-3 ovarian and in the assay with UACC-62 melanoma was > 25 µM each time.

As for `CCN(CC)c1ccc(C=C2C(=O)NC(=S)NC2=O)cc1`, the GI50 in the assay with MDA-MB-231 breast is 3.49 µM; in the assay with MALME-3M melanoma, 2.98 µM; with UO-31 renal, 1.62 µM; with SK-MEL-2 melanoma, 2.73 µM; in the assay with OVCAR-8 ovarian, 3.83 µM; with K-562 leukemia it was 3.1 µM. For the same molecule, the GI50 in the assay with MDA-MB-435 is 2.31 µM; with OVCAR-3 ovarian, 3.15 µM; in the assay on UACC-62 melanoma, 2.26 µM. In addition, the TGI in the assay on MDA-MB-231 breast was 10.6 µM; in the assay on MALME-3M melanoma it was 7.49 µM; with UO-31 renal, 3.61 µM; in the assay on SK-MEL-2 melanoma it was 7.05 µM; with OVCAR-8 ovarian, 13.4 µM; in the assay on K-562 leukemia, 10.7 µM. Also, the TGI with MDA-MB-435 turned out to be 7.1 µM; in the assay with OVCAR-3 ovarian, 8.68 µM; in the assay with UACC-62 melanoma, 6.72 µM.

For the molecule `Cc1nn(-c2ccccc2)c2c1[C@@H](C)[C@H]1CC3(CC4(C)C[C@@H]3C1(C)c1c(C)nn(-c3ccccc3)c1N4C)N2C` (stereo not given in full), the GI50 in the assay with IGROV1 ovarian, in the assay on MDA-MB-231 breast, with MALME-3M melanoma and in the assay with SK-MEL-2 melanoma was > 100 µM throughout. Besides, the TGI in the assay with IGROV1 ovarian, in the assay with MDA-MB-231 breast, with MALME-3M melanoma and in the assay on SK-MEL-2 melanoma was > 100 µM throughout.

Regarding `Cc1ccccc1C1N=C2Oc3ccccc3C=C2C(=O)N1` (stereo not given), the GI50 was 9.85 µM in the assay with IGROV1 ovarian; 1.81 µM in the assay on MDA-MB-231 breast; 7.5 µM in the assay with UO-31 renal; 0.535 µM with SK-MEL-2 melanoma; 10.9 µM in the assay with OVCAR-8 ovarian; 4.01 µM in the assay on K-562 leukemia. Moreover, the figures for the GI50 in the assay on MDA-MB-435, in the assay with OVCAR-3 ovarian and in the assay with UACC-62 melanoma were 0.244 µM, 0.621 µM and 1.48 µM, respectively. In addition, the TGI in the assay with IGROV1 ovarian was > 100 µM; in the assay with MDA-MB-231 breast it was 33.3 µM; with UO-31 renal, > 100 µM; in the assay on SK-MEL-2 melanoma it was > 100 µM; in the assay with OVCAR-8 ovarian it was > 100 µM; in the assay on K-562 leukemia it was > 100 µM. Besides, the TGI in the assay on MDA-MB-435 is 0.824 µM; with OVCAR-3 ovarian, 2.69 µM; with UACC-62 melanoma, > 100 µM.

As to `Nc1ncnc2c1ncn2C1SC(CO)C(O)C1O` (stereo not given), the GI50 with IGROV1 ovarian was > 100 µM; in the assay with MDA-MB-231 breast it was 10.9 µM; with UO-31 renal, 18.8 µM; in the assay with SK-MEL-2 melanoma it was 78.8 µM; in the assay with OVCAR-8 ovarian, 4 µM; in the assay on K-562 leukemia, 16.9 µM. Besides, the GI50 in the assay on MDA-MB-435 was 18.1 µM; with OVCAR-3 ovarian, 24.5 µM; with UACC-62 melanoma, > 100 µM. The TGI with IGROV1 ovarian is > 100 µM; in the assay on MDA-MB-231 breast, 34.8 µM; in the assay with UO-31 renal, 41.9 µM; in the assay on SK-MEL-2 melanoma it was > 100 µM; with OVCAR-8 ovarian it was 23.6 µM; with K-562 leukemia, > 100 µM. The TGI in the assay with MDA-MB-435 is 50.2 µM; with OVCAR-3 ovarian it was 58.3 µM; with UACC-62 melanoma, > 100 µM.

Regarding `COc1cc(-c2nn(-c3cccc(NC(=O)NCCNC(=O)c4ccccc4)c3)cc2-c2ccncc2)ccc1Cl`, the GI50 in the assay with IGROV1 ovarian is 4.68 µM; in the assay with MDA-MB-231 breast it was 2.99 µM; with MALME-3M melanoma, 1.97 µM; in the assay with UO-31 renal, 2.76 µM; with SK-MEL-2 melanoma, 2.34 µM; with OVCAR-8 ovarian it was 0.576 µM. Also, the GI50 is 2.41 µM in the assay with MDA-MB-435, 2.93 µM in the assay with OVCAR-3 ovarian and 3.08 µM in the assay on UACC-62 melanoma. Further, the TGI in the assay on IGROV1 ovarian was > 100 µM; with MDA-MB-231 breast, > 100 µM; in the assay on MALME-3M melanoma, 6.11 µM; in the assay on UO-31 renal, > 100 µM; in the assay on SK-MEL-2 melanoma it was 5.43 µM; in the assay on OVCAR-8 ovarian, 41.7 µM. The TGI in the assay on MDA-MB-435 is 9.29 µM; in the assay on OVCAR-3 ovarian, > 100 µM; in the assay with UACC-62 melanoma, 31.2 µM.
